Data from patent publication US5962451A, “Benzodiazepin derivatives useful as CCK-receptor antagonists” (Ferring BV, priority 1992, dated 1999).
pIC50: −log10 of the molar value.

How the values were obtained:
CCK-B receptor = target: T1, CCK-B receptor (Rattus norvegicus, UniProt P30553); test: Measurement of Binding Affinity for CCK-B Receptors ([125I]BH-CCK-8 displacement, rat brain membranes); details: SD rat brain membranes, [125I]BH-CCK-8, 25° C., 120 min, pH 6.5
T1 construct: the whole brain was immediately excised from each of the rats and homogenized; from tissue; host or cells: SD rat whole brain, membrane preparation
Method: Measurement of Binding Affinity for CCK-B Receptors
About 100 SD rats were decapitated without anaesthesia, the whole brain was immediately excised from each of the rats and homogenized in 10-fold volume of 0.32 M aqueous solution of sucrose by the use of a Teflon-coatedhomogenizer, the homogenate thus obtained was centrifuged for ten minutes at 900 g by the use of a cooled centrifuge, and the supernatant was further centrifuged for 15 minutes at 11500 g. The precipitate thus obtained was dispersed in 50 mM Tris-HCl buffer (pH 7.4) containing 0.08% Triton X-100, this suspension was allowed to stand for 30 minutes and again centrifuged for 15 minutes at 11500 g, the precipitate thus obtained was washed twice with 5 mM Tris-HCl buffer and twice with 50 mM Tris-HCl buffer in that order with centrifugal separation, the washed precipitate was suspended in 50 mM Tris-HCl buffer, and the suspension thus obtained was stored at -80° C. until the membrane preparation was required.
The membrane preparations were warmed to room temperature, diluted with 10 mM HEPES buffer (containing 130 mM NaCl, 5 mM MgCl2, 1 mM EGTA and 0.25 mg/ml bacitracin; pH 6.5) and incubated at 25° C. for 120 minutes in the presence of [^125 I]BH-CCK-8 and the test compound, then separated by suction filtration. Non-specific binding was determined in the presence of 1 μM CCK-8. The amount of labelled ligand bound to the receptor was measured by the use of a γ-counter; IC50 values were determined, being that concentration of test compound required to inhibit specific binding by 50%.
(§1) A high affinity for the CCK-A receptor in a gastrin/CCK-B antagonist is thought to be undesirable as it may lead to side-effects such as cholestasis and gall stone formation during therapy. Therefore it is preferable for the therapeutic agent to be selective for the CCK-B receptor. This selectivity is expressed by the ratio IC50. (CCK-A)/IC50 (CCK-B); the higher the value of this ratio the better is the selectivity.
The table below summarises CCK-B and CCK-A binding data for examples of preferred compounds, as well as the A/B ratio. Many compounds display a marked increase in CCK-B receptor binding affinity when compared to the compound of Example 281 of U.S. Pat. No. 4,820,834 (also known as L-365,260). Several compounds also show much greater selectivity for the CCK-B receptor over the CCK-A receptor than that reported for the compound of Example 281 of U.S. Pat. No.

CCK-A receptor = target: T2, CCK-A receptor (Rattus norvegicus, UniProt P30551); test: Measurement of Binding Affinity for CCK-A Receptors ([3H]L-364,718 displacement, rat pancreas membranes); details: SD rat pancreas membranes, [3H]L-364,718, 37° C., 30 min
T2 construct: The pancreas of an SD rat was homogenized; from tissue; host or cells: SD rat pancreas, membrane preparation
T2 sequence (P30551 1-444): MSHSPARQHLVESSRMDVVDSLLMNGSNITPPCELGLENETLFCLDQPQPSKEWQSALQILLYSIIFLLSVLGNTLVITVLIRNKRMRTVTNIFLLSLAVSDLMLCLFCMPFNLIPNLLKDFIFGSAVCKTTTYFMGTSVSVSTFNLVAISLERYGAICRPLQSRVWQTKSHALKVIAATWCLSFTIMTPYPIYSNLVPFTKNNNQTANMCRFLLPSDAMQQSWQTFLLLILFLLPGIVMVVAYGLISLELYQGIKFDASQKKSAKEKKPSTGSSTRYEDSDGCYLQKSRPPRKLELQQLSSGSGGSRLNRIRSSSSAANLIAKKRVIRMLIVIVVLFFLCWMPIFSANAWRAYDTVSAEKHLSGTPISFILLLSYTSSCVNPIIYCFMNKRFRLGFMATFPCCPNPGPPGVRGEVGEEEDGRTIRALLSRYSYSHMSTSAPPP
Method: Measurement of Binding Affinity for CCK-A Receptors
The pancreas of an SD rat was homogenized in a 20-fold volume of 50 mM Tris-HCl buffer (pH 7.7) by the use of a Polytrone-type homogenizer, the homogenate was twice centrifuged for 10 minutes at 50000 g by the use of an ultra-centrifuge, the precipitate thus obtained was suspended in a 40-fold volume of 50 mM Tris-HCl buffer (containing 0.2% BSA, 5 mM MgCl2, 0.1 mg/ml bacitracin and 5 mM DTT; pH 7.7), and the suspension was stored at -80° C. until the membrane preparations were required.
The membrane preparations were then warmed to room temperature, diluted 1:10 with the buffer and incubated at 37° C. for 30 minutes in the presence of [^3 H]L-364,718 and the test compound then separated by suction filtration. Non-specific binding was determined in the presence of 1 μM L-364,718. The amount of labelled ligand bound to the receptor was measured by the use of a liquid scintillation counter; IC50 values were determined, being that concentration of test compound required to inhibit specific binding by 50%.
as §1, with “(CCK-A)/IC50 (CCK-B); the higher the value of this ratio the better is the selectivity.” left out

[1] = system: Pentagastrin-stimulated gastric acid secretion; test: Measurement of Inhibition of Pentagastrin-stimulated Gastric Acid Secretion in dog (Heidenhain pouch); assay type: in vivo, male beagle dog; details: beagle dog, oral, pentagastrin 8 μg/kg/hr, mean for 3-5 animals
Method: Measurement of Inhibition of Pentagastrin-stimulated Gastric Acid Secretion in doc
Assays were performed using male beagle dogs (7-12 kg) two months after surgical preparation of Heidenhain pouches following the conventional procedure. Each dog was used only once per week.
The animals were deprived of food with free access to water for 18 hr prior to the experiment. The gastric juice was collected from the gastric cannula by gravity drainage every 15 min, and acid output was determined by automatic titration with 0.05 N NaOH to pH 7.0 (Comtite-7, Hiranuma, Tokyo, Japan). Drugs were administered orally 3 hr after the start of the pentagastrin (8 μg/kg/hr) infusion. The effect of each drug was calculated as the percentage inhibition of stimulated acid output. […] Each result is a mean for 3-5 animals.

T1 sequence (P30553 whole entry): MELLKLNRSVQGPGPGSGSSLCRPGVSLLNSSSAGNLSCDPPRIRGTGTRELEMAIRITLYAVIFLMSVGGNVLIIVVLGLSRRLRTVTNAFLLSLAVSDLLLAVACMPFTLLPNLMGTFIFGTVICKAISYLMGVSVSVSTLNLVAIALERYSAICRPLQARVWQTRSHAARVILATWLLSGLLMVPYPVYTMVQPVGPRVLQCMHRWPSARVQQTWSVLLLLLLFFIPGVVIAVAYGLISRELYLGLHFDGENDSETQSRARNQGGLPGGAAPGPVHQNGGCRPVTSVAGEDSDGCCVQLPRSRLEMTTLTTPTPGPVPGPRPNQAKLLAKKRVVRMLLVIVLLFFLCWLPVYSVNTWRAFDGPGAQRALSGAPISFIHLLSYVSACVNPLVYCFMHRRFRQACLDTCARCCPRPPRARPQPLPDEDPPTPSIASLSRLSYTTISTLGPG

| SMILES | pIC50 (CCK-B receptor) | maximum inhibition of stimulated acid output ([1]; 3 μmol/kg) [%] | other results |
| --- | --- | --- | --- |
| Cc1cccc(NC(=O)NC2N=C(c3ccccc3)c3ccccc3N(CC(=O)C3CCCC3)C2=O)c1 (racemic) [Example 4, N-((3RS)-1-Cyclopentylcarbonylmethyl-2,3-dihydro-2-oxo-5-phenyl-1H-1,4-benzodiazepin-3-yl)-N'-(3-methylphenyl) urea] | 9.64 |  |  |
| Cc1cccc(NC(=O)NC2N=C(c3ccccn3)c3ccccc3N(CC(=O)C3CCCC3)C2=O)c1 (racemic) [Example 14, N-((3RS)-1-Cyclopentylcarbonylmethyl-2,3-dihydro-2-oxo-5-(2-pyridyl)-1H-1,4-benzodiazepin-3-yl)-N'-(3-methylphenyl)urea] | 9.92 |  | pIC50 (CCK-A receptor): 5.59 |
| Cc1cccc(NC(=O)NC2N=C(c3ccccn3)c3ccccc3N(CC(=O)C(C)(C)C)C2=O)c1 (racemic) [Example 27, N-((3RS)-1-tert-Butylcarbonylmethyl-2,3-dihydro-2-oxo-5-(2-pyridyl)-1H-1,4-benzodiazepin-3-yl)-N'-(3-methylphenyl) urea] |  | 66 |  |
| Cc1cccc(NC(=O)NC2N=C(c3ccccc3)c3ccccc3N(CC(=O)CC3CCCCC3)C2=O)c1 (racemic) [Example 32, N-((3RS)-1-Cyclohexylmethylcarbonylmethyl-2,3-dihydro-2-oxo-5-phenyl-1H-1,4-benzodiazepin-3-yl)-N'-(3-methylphenyl) urea] | 9.55 |  |  |
| Cc1cccc(NC(=O)NC2N=C(c3ccccc3)c3ccccc3N(CC(=O)C3(C)CCCCC3)C2=O)c1 (racemic) [Example 34, N-((3RS)-1-((1-Methylcyclohexyl)carbonylmethyl)-2,3-dihydro-2-oxo-5-phenyl-1H-1,4-benzodiazepin-3-yl)-N'-(3-methylphenyl) urea] | 9.42 |  |  |
| CN(C)c1cccc(NC(=O)NC2N=C(c3ccccn3)c3ccccc3N(CC(=O)C(C)(C)C)C2=O)c1 (racemic) [Example 38, N-((3RS)-1-tert-Butylcarbonylmethyl-2,3-dihydro-2-oxo-5-(2-pyridyl)-1H-1,4-benzodiazepin-3-yl)-N'-(3-dimethylaminophenyl) urea] |  | 100 |  |
| Cc1cccc(NC(=O)N[C@@H]2N=C(c3ccccc3)c3ccccc3N(CC(=O)C(C)(C)C)C2=O)c1 [Example 26, N-((3R)-1-tert-Butylcarbonylmethyl-2,3-dihydro-2-oxo-5-phenyl-1H-1,4-benzodiazepin-3-yl)-N'-(3-methylphenyl) urea] |  | 53 |  |
| CN(C)c1cccc(NC(=O)N[C@@H]2N=C(c3ccccc3)c3ccccc3N(CC(=O)C(C)(C)C)C2=O)c1 [Example 64, N-((3R)-1-tert-Butylcarbonylmethyl-2,3-dihydro-2-oxo-5-phenyl-1H-1,4-benzodiazepin-3-yl)-N'-(3-dimethylaminophenyl) urea] |  | 100 |  |
| Cc1cccc(NC(=O)N[C@@H]2N=C(c3ccccc3)c3ccccc3N(C)C2=O)c1 [reference compound] |  |  | maximum inhibition of stimulated acid output ([1]; 100 μmol/kg): 0% |
